Common to all, as to assay type: biochemical
For experiment [1], the target named is T1, calpain-I isolated from human erythrocytes (Homo sapiens, UniProt P07384).
T1 construct: calpain-I—isolated from human erythrocytes; purchased Calbiochem 208713; host or cells: human erythrocytes (native tissue isolate)
T1 sequence (P07384 1-714): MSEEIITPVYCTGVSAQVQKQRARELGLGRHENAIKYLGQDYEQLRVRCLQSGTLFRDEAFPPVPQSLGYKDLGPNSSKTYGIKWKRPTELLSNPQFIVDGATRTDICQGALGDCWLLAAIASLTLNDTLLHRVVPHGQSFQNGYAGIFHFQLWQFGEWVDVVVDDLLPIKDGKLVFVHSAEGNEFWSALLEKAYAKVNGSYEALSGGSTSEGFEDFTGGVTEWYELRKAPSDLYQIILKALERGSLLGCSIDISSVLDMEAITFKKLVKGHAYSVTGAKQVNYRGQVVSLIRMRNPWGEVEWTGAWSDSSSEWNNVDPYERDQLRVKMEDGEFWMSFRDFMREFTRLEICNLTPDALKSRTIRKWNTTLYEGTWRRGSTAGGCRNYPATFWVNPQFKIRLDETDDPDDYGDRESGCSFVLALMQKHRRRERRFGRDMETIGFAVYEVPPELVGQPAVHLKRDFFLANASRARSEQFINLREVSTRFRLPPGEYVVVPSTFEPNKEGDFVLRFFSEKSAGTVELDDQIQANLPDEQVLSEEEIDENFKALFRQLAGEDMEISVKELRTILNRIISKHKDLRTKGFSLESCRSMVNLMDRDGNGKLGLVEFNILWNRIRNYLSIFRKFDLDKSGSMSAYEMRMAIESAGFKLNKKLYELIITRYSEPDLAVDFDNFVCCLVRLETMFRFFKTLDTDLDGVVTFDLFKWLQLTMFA
T1 sequence (P04632 1-268 partner): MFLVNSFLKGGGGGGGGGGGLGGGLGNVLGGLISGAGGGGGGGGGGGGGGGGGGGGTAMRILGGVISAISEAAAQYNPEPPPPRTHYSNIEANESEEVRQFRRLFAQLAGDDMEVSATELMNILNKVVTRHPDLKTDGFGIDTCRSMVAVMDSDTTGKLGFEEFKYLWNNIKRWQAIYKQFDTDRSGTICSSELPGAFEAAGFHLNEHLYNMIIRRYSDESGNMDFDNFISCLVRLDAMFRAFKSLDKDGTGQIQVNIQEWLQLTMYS
The experiment can be described thus: Calpain I enzyme inhibition, kinetic fluorescence assay. The note with it: apparent Ki from IC50 by Cheng-Prussoff; pH 7.3, room temperature. On the procedure: The following solutions and buffers were employed: • HBS (for 40 ml): 800 μl 1M HEPES; 2.16 ml 100 mM KCl; 4.8 ml 1M NaCl; 3.59 ml 5% glucose; 60 μl 1M MgSO4; 400 μl 100 mM Na pyruvate, 28.19 ml water; pH 7.2-7.5. • lysis buffer (for 20 ml): 400 μl 1M Tris pH 8.2; 2.74 ml 1M NaCl; 520 μl 0.5M EDTA; 2 ml 10% triton X-100; 0.8 ml (=1:25) CompletePlus (1 tablet/2 ml H2O); 200 μl 100 mM Pefabloc; 13.34 ml water, pH 8.2. • TBST (10×) (for 1I): 100 mM Tris (12.1 g); 1.5M NaCl (87 g); 1% Tween 20 (10 g), adjusted to pH 8. I. Enzyme Inhibition In Vitro: • Testing for blockade of the corresponding enzymic activities was carried out by means of kinetic fluorescence assays (excitation 390 nm, emission 460 nm). • Apparent Ki values were calculated from the experimentally determined IC50 values by the Cheng-Prussoff relation assuming a reversible competitive enzyme inhibition. The Km values of the substrates used under the assay conditions indicated above were: 90 μM (Z-Phe-Arg-AMC, cathepsin B), 10 μM (Z-Gly-Pro-Arg-AMC, cathepsin K), 2 μM (Z-Phe-Arg-AMC, cathepsin L), and 30 μM (Z-Val-Val-Arg-AMC, cathepsin S). • The indicated Ki values are averages of the inhibition constants calculated on the basis of 2 to 4 independent dose-effect plots. • The following assays were used: • 1. Calpain I: • 20 nM calpain-I—isolated from human erythrocytes (Calbiochem #208713), 100 μM Suc-Leu-Tyr-AMC (Bachem #I-1355) as substrate in buffer with 62 mM imidazole, 0.3 mM CaCl2, 0.10% CHAPS, 0.05% BSA, 1 mM DTT at pH 7.3 and room temperature. • 2. Cathepsin B: • 0.25 nM cathepsin B—isolated from human liver (Calbiochem #219362), 100 μM Z-Phe-Arg-AMC (Bachem #I-1160) as substrate 50 mM MES, 2 mM EDTA, 0.05% Brij 35, 2.5 mM L-cysteine, pH 6.0, room temperature. • 3. Cathepsin K: • 3 nM cathepsin K—activated from recombinant human procathepsin K from E. coli (Calbiochem #342001), 10 μM Z-Gly-Pro-Arg-AMC (Biomol #P-142) as substrate in 50 mM MES, 2 mM EDTA, 0.05% Brij 35, 2.5 mM L-cysteine, pH 6.0, room temperature. • 4. Cathepsin L: • 1 nM cathepsin L—isolated from human liver (Calbiochem #219402), 2 μM Z-Phe-Arg-AMC (Bachem #I-1160) as substrate in 50 mM MES, 2 mM EDTA, 0.05% Brij 35, 2.5 mM L-cysteine, pH 6.0, room temperature. • 5. Cathepsin S: • 0.5 nM recombinant human cathepsin S from E. coli (Calbiochem #219343), 20 μM Z-Val-Val-Arg-AMC (Bachem #I-1540) as substrate in 50 mM MES, 2 mM EDTA, 0.05% Brij 35, 2.5 mM L-cysteine, pH 6.0, room temperature. • The results of the in vitro determination are indicated in Table 2. The following abbreviations are used in Table 2: • The “Calpain activity” column, ++ stands for a calpain Ki (Ki(calpain)) of ≦40 nM, + means: 40 nM<Ki(Calpain)≦100 nM, 0 means 100 nM<Ki(Calpain)≦1 μM, − means 1 μM<Ki(Calpain)≦10 μM, −− means Ki(Calpain)>10 μM. • The “Sel. cat. B” column indicates the Ki(cathepsin B)/Ki(calpain) ratio. In this connection, ++ means a Ki(cathepsin B)/Ki(calpain) ratio of ≧30 and + means≦10≦Ki(cathepsin B)/Ki(calpain)<30. • The “Sel. cat. K” column indicates the Ki(cathepsin K)/Ki(calpain) ratio. In this connection, ++ means a Ki(cathepsin K)/Ki(calpain) ratio of ≧30 and + means 10≦Ki(cathepsin K)/Ki(calpain)<30. • The “Sel. cat. L” column indicates the Ki(cathepsin L)/Ki(calpain) ratio. In this connection, ++ means a Ki(cathepsin L)/Ki(calpain) ratio of ≧50 and + means 30≦Ki(cathepsin L)/Ki(calpain)<50. • The “Sel. cat. S” column indicates the Ki(cathepsin S)/Ki(calpain) ratio. […]

The target of experiment [2] is T2, cathepsin K activated from recombinant human procathepsin K (Homo sapiens, UniProt P43235).
T2 construct: purchased Calbiochem 342001; host or cells: E. coli
T2 sequence (P43235 115-329): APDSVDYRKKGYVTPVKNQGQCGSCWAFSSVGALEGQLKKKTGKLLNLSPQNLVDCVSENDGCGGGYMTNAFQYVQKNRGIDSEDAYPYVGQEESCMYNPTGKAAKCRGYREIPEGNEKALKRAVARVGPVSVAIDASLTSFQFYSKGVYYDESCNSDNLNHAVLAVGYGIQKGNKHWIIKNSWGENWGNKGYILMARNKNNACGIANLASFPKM
The experiment can be described thus: Cathepsin K enzyme inhibition, kinetic fluorescence assay. As to conditions: selectivity ratio. On the procedure:
(§1) The following solutions and buffers were employed: • HBS (for 40 ml): 800 μl 1M HEPES; 2.16 ml 100 mM KCl; 4.8 ml 1M NaCl; 3.59 ml 5% glucose; 60 μl 1M MgSO4; 400 μl 100 mM Na pyruvate, 28.19 ml water; pH 7.2-7.5. • lysis buffer (for 20 ml): 400 μl 1M Tris pH 8.2; 2.74 ml 1M NaCl; 520 μl 0.5M EDTA; 2 ml 10% triton X-100; 0.8 ml (=1:25) CompletePlus (1 tablet/2 ml H2O); 200 μl 100 mM Pefabloc; 13.34 ml water, pH 8.2. • TBST (10×) (for 1I): 100 mM Tris (12.1 g); 1.5M NaCl (87 g); 1% Tween 20 (10 g), adjusted to pH 8. I. Enzyme Inhibition In Vitro: • Testing for blockade of the corresponding enzymic activities was carried out by means of kinetic fluorescence assays (excitation 390 nm, emission 460 nm). • Apparent Ki values were calculated from the experimentally determined IC50 values by the Cheng-Prussoff relation assuming a reversible competitive enzyme inhibition. The Km values of the substrates used under the assay conditions indicated above were: 90 μM (Z-Phe-Arg-AMC, cathepsin B), 10 μM (Z-Gly-Pro-Arg-AMC, cathepsin K), 2 μM (Z-Phe-Arg-AMC, cathepsin L), and 30 μM (Z-Val-Val-Arg-AMC, cathepsin S). • The indicated Ki values are averages of the inhibition constants calculated on the basis of 2 to 4 independent dose-effect plots. • The following assays were used: • 1. Calpain I: • 20 nM calpain-I—isolated from human erythrocytes (Calbiochem #208713), 100 μM Suc-Leu-Tyr-AMC (Bachem #I-1355) as substrate in buffer with 62 mM imidazole, 0.3 mM CaCl2, 0.10% CHAPS, 0.05% BSA, 1 mM DTT at pH 7.3 and room temperature. • 2. Cathepsin B: • 0.25 nM cathepsin B—isolated from human liver (Calbiochem #219362), 100 μM Z-Phe-Arg-AMC (Bachem #I-1160) as substrate 50 mM MES, 2 mM EDTA, 0.05% Brij 35, 2.5 mM L-cysteine, pH 6.0, room temperature. • 3. Cathepsin K: • 3 nM cathepsin K—activated from recombinant human procathepsin K from E. coli (Calbiochem #342001), 10 μM Z-Gly-Pro-Arg-AMC (Biomol #P-142) as substrate in 50 mM MES, 2 mM EDTA, 0.05% Brij 35, 2.5 mM L-cysteine, pH 6.0, room temperature. • 4. […]

The target of experiment [3] is T3, cathepsin B isolated from human liver (Homo sapiens, UniProt P07858).
T3 construct: cathepsin B—isolated from human liver; purchased Calbiochem 219362; host or cells: human liver (native tissue isolate)
The experiment in a line: Cathepsin B enzyme inhibition, kinetic fluorescence assay. The note with it: selectivity ratio. On the procedure: as §1

The target in experiment [4] is T4, cathepsin L isolated from human liver (Homo sapiens, UniProt P07711).
T4 construct: cathepsin L—isolated from human liver; purchased Calbiochem 219402; host or cells: human liver (native tissue isolate)
T4 sequence (P07711 114-333): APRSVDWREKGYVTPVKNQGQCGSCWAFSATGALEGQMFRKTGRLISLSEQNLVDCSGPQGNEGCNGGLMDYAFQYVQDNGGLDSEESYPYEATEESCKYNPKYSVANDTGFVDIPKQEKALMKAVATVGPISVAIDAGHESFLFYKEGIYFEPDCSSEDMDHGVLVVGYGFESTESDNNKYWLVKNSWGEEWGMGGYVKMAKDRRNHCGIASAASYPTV
The experiment in a line: Cathepsin L enzyme inhibition, kinetic fluorescence assay. As to conditions: selectivity ratio. Here is the method:
as §1

Experiment [5] has as its target T5, recombinant human cathepsin S (Homo sapiens, UniProt P25774).
T5 construct: purchased Calbiochem 219343; host or cells: E. coli
The experiment in a line: Cathepsin S enzyme inhibition, kinetic fluorescence assay. The note with it: selectivity ratio. Here is the method: as §1

The text below walks through data of patent US9150553B2, “Carboxamide compounds and their use as calpain inhibitors” (AbbVie Deutschland GmbH & Co. KG, priority 2007, dated 2015).

T5 sequence (P25774 115-331): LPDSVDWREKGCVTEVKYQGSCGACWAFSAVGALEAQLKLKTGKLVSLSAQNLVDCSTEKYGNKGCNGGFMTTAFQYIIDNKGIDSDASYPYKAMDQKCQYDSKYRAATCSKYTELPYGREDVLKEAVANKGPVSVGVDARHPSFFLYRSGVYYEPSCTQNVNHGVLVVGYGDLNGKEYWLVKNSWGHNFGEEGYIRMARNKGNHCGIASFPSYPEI

`NC(=O)C(=O)C(Cc1ccccc1)NC(=O)c1cccnc1-n1ccc(-c2ccc(F)cc2)n1` (stereo not shown) [II-3, N-(3-amino-1-benzyl-2,3-dioxopropyl)-2-[3-(4-fluorophenyl)-1H-pyrazol-1-yl]nicotinamide]: in experiment [1], the Ki was in the range of 40 to 100 nM. Moreover, the “Sel cat. K: Ki(cathepsin K)/Ki(calpain) ratio” value in experiment [2] is “+ (+ means 10≦Ki(cathepsin K)/Ki(calpain)<30)”. Also, the “Sel cat. B: Ki(cathepsin B)/Ki(calpain) ratio” value in experiment [3] is given as “+ (+ means≦10≦Ki(cathepsin B)/Ki(calpain)<30)”. In addition, the “Sel cat. L: Ki(cathepsin L)/Ki(calpain) ratio” value in experiment [4] is “++ (++ means a Ki(cathepsin L)/Ki(calpain) ratio of ≧50)”. The “Sel cat. S: Ki(cathepsin S)/Ki(calpain) ratio” value in experiment [5] is on record as “++ (++ means a Ki(cathepsin S)/Ki(calpain) ratio of ≧100)”.

For the molecule `NC(=O)C(=O)C(Cc1ccccc1)NC(=O)c1cccnc1-n1ccc(-c2cccc(C(F)(F)F)c2)n1` (stereo not shown) [Compound II-2, N-(3-Amino-1-benzyl-2,3-dioxopropyl)-2-{3-[3-(trifluoromethyl)phenyl]-1H-pyrazol-1-yl}nicotinamide], in experiment [1], the Ki was at most 40 nM. Moreover, the “Sel cat. K: Ki(cathepsin K)/Ki(calpain) ratio” value in experiment [2] is “++ (++ means a Ki(cathepsin K)/Ki(calpain) ratio of ≧30)”. For the same molecule, the “Sel cat. B: Ki(cathepsin B)/Ki(calpain) ratio” value in experiment [3] is recorded as “+ (+ means≦10≦Ki(cathepsin B)/Ki(calpain)<30)”. For the same molecule, in experiment [4], the “Sel cat. L: Ki(cathepsin L)/Ki(calpain) ratio” value was “++ (++ means a Ki(cathepsin L)/Ki(calpain) ratio of ≧50)”. For the same molecule, the “Sel cat. S: Ki(cathepsin S)/Ki(calpain) ratio” value in experiment [5] was “++ (++ means a Ki(cathepsin S)/Ki(calpain) ratio of ≧100)”.

For `NC(=O)C(=O)C(Cc1ccc(F)cc1)NC(=O)c1cccnc1-n1ccc(-c2ccc(Cl)cc2Cl)n1` (stereo not shown) [II-1, N-[3-amino-1-(4-fluorobenzyl)-2,3-dioxopropyl]-2-[3-(2,4-dichlorophenyl)-1H-pyrazol-1-yl]nicotinamide], the Ki in experiment [1] fell in the range of 40 to 100 nM. In experiment [2], the “Sel cat. K: Ki(cathepsin K)/Ki(calpain) ratio” value is on record as “++ (++ means a Ki(cathepsin K)/Ki(calpain) ratio of ≧30)”. Also, the “Sel cat. B: Ki(cathepsin B)/Ki(calpain) ratio” value in experiment [3] is recorded as “++ (++ means a Ki(cathepsin B)/Ki(calpain) ratio of ≧30)”. In addition, in experiment [4], the “Sel cat. L: Ki(cathepsin L)/Ki(calpain) ratio” value was “++ (++ means a Ki(cathepsin L)/Ki(calpain) ratio of ≧50)”. In experiment [5], the “Sel cat. S: Ki(cathepsin S)/Ki(calpain) ratio” value is listed as “++ (++ means a Ki(cathepsin S)/Ki(calpain) ratio of ≧100)”.

As for `NC(=O)C1(C(Cc2ccc(F)cc2)NC(=O)c2cccnc2-n2ccc(-c3ccc(Cl)cc3Cl)n2)OCCO1` (stereo not shown) [Compound I-1, N-[1-[2-(Aminocarbonyl)-1,3-dioxolan-2-yl]-2-(4-fluorophenyl)ethyl]-2-[3-(2,4-dichlorophenyl)-1H-pyrazol-1-yl]nicotinamide], in experiment [1], the Ki was above 10000 nM.
